# Laboratory results reported in patent US11945826B2, “Hydroxypyridoxazepines as NRF2 activators” (GLAXOSMITHKLINE INTELLECTUAL PROPERTY DEVELOPMENT LIMITED, priority 2019, dated 2024).
# Tested on: Nrf2 (NQO1 activity in BEAS-2B cells)
# Test: BEAS-2B NQO1 MTT Assay
# Type: cell-based
# Details: Homo sapiens, 48 hours, NQO1 specific activity induction, read-out: EC50
# Text: NAD(P)H:quinone oxidoreductase 1 (NQO1), also called DT diaphorase, is a homodimeric FAD-containing enzyme that catalyzes obligatory NAD(P)H-dependent two-electron reductions of quinones and protects cells against the toxic and neoplastic effects of free radicals and reactive oxygen species arising from one-electron reductions. The transcription of NQO1 is finely regulated by Nrf2, and thus NQO1 activity is a good marker for Nrf2 activation. On day one, frozen BEAS-2B cells (ATCC) were thawed in a water bath, counted, and re-suspended at a concentration of 250,000 cells/mL. Fifty microliters of cells were plated in 384 well black clear-bottomed plates. Plates were incubated at 37° C., 5% CO2 overnight. On day two, plates were centrifuged and 50 nL of compound or controls were added to the cells. Plates were then incubated at 37° C., 5% CO2 for 48 hours. On day four, medium was aspirated from the plate and crude cell lysates were made by adding 13 μL of 1× Cell Signalling Technologies lysis buffer with 1 Complete, Mini, EDTA-free Protease Inhibitor Tablet (Roche) for each 10 mL of lysis buffer. After lysis plates were incubated for 20 minutes at room temperature. Two microliters of lysate were removed for use in Cell Titer Glo assay (Promega) and MTT cocktail was prepared (Prochaska et. al. 1998) for measurement of NQO1 activity. Fifty microliters of MTT cocktail was added to each well, plate was centrifuged, and analyzed on an Envision plate reader (Perkin Elmer) using Absorbance 570 nm label for 30 minutes. Product formation was measured kinetically and the pEC50 of NQO1 specific activity induction was calculated by plotting the change in absorbance (Delta OD/min) versus the log of compound concentration followed by 3-parameter fitting.
# EC50s<1 nM (+++++), EC50s 1 nM-10 nM (++++), EC50s 10 nM-100 nM (+++), EC50s 100 nM-1 μM (++), EC50s 1 μM-10 μM (+).
row,SMILES,EC50 [nM]
1,"Cc1ccc([C@H](CC(=O)O)c2ccc3c(nnn3C)c2C)cc1CN1Cc2nc(O)ccc2OC(C)(C)C1 [Example 11, (S)-3-(1,4-dimethyl-1H-benzo[d][1,2,3]triazol-5-yl)-3-(3-((7-hydroxy-2,2-dimethyl-2,3-dihydropyrido[2,3-f][1,4]oxazepin-4(5H)-yl)methyl)-4-methylphenyl)propanoic acid]",100 to 1000
2,"Cc1ccc([C@@H](CC(=O)O)c2ccc3c(nnn3C)c2C)cc1CN1Cc2nc(O)ccc2O[C@H](C(F)(F)F)C1 [Example 6, (R)-3-(1,4-dimethyl-1H-benzo[d][1,2,3]triazol-5-yl)-3-(3-(((S)-7-hydroxy-2-(trifluoromethyl)-2,3-dihydropyrido[2,3-f][1,4]oxazepin-4(5H)-yl)methyl)-4-methylphenyl)propanoic acidacid]",10 to 100
3,"Cc1ccc([C@@H](CC(=O)O)c2ccc3c(nnn3C)c2C)cc1CN1Cc2nc(O)ccc2O[C@H](C)C1 [Example 4, (R)-3-(1,4-dimethyl-1H-benzo[d][1,2,3]triazol-5-yl)-3-(3-(((R)-7-hydroxy-2-methyl-2,3-dihydropyrido[2,3-f][1,4]oxazepin-4(5H)-yl)methyl)-4-methylphenyl)propanoic acid]",10 to 100
4,"Cc1ccc([C@H](CC(=O)O)c2ccc3c(nnn3C)c2C)cc1CN1Cc2nc(O)ccc2O[C@H](C(C)C)C1 [Example 8, (S)-3-(1,4-dimethyl-1H-benzo[d][1,2,3]triazol-5-yl)-3-(3-(((R)-7-hydroxy-2-isopropyl-2,3-dihydropyrido[2,3-f][1,4]oxazepin-4(5H)-yl)methyl)-4-methylphenyl)propanoic acid]",10 to 100
5,"Cc1ccc([C@@H](c2ccc3c(nnn3C)c2C)C(C)(C)C(=O)O)cc1CN1CCOc2ccc(O)nc2C1 [Example 24, (S)-3-(1,4-dimethyl-1H-benzo[d][1,2,3]triazol-5-yl)-3-(3-((7-hydroxy-2,3-dihydropyrido[2,3-f][1,4]oxazepin-4(5H)-yl)methyl)-4-methylphenyl)-2,2-dimethylpropanoic acid]",10 to 100
6,"CC[C@H]1CN(Cc2cc([C@@H](c3ccc4c(nnn4C)c3C)C(C)(C)C(=O)O)ccc2C)Cc2nc(O)ccc2O1 [Example 18, (S)-3-(1,4-dimethyl-1H-benzo[d][1,2,3]triazol-5-yl)-3-(3-(((S)-2-ethyl-7-hydroxy-2,3-dihydropyrido[2,3-f][1,4]oxazepin-4(5H)-yl)methyl)-4-methylphenyl)-2,2-dimethylpropanoic acid]",1 to 10
7,"Cc1ccc([C@@H](CC(=O)O)c2ccc3c(nnn3C)c2C)cc1CN1Cc2nc(O)ccc2O[C@H](C(C)C)C1 [Example 3, (R)-3-(1,4-dimethyl-1H-benzo[d][1,2,3]triazol-5-yl)-3-(3-(((R)-7-hydroxy-2-isopropyl-2,3-dihydropyrido[2,3-f][1,4]oxazepin-4(5H)-yl)methyl)-4-methylphenyl)propanoic acid]",1 to 10
8,"Cc1ccc([C@@H](CC(=O)O)c2ccc3c(nnn3C)c2C)cc1CN1Cc2nc(O)ccc2O[C@@H](C(C)C)C1 [Example 2, (R)-3-(1,4-dimethyl-1H-benzo[d][1,2,3]triazol-5-yl)-3-(3-(((S)-7-hydroxy-2-isopropyl-2,3-dihydropyrido[2,3-f][1,4]oxazepin-4(5H)-yl)methyl)-4-methylphenyl)propanoic acid]",100 to 1000
9,"CC[C@]1(C)CN(Cc2cc([C@@H](CC(=O)O)c3ccc4c(nnn4C)c3C)ccc2C)Cc2nc(O)ccc2O1 [Example 26, (R)-3-(1,4-dimethyl-1H-benzo[d][1,2,3]triazol-5-yl)-3-(3-(((R)-2-ethyl-7-hydroxy-2-methyl-2,3-dihydropyrido[2,3-f][1,4]oxazepin-4(5H)-yl)methyl)-4-methylphenyl)propanonic acid]",100 to 1000
10,"Cc1ccc([C@H](CC(=O)O)c2ccc3c(nnn3C)c2C)cc1CN1Cc2nc(O)ccc2O[C@@H](C(C)C)C1 [Example 9, (S)-3-(1,4-dimethyl-1H-benzo[d][1,2,3]triazol-5-yl)-3-(3-(((S)-7-hydroxy-2-isopropyl-2,3-dihydropyrido[2,3-f][1,4]oxazepin-4(5H)-yl)methyl)-4-methylphenyl)propanoic acid]",100 to 1000
11,"Cc1ccc([C@@H](c2ccc3c(nnn3C)c2C)C(C)(C)C(=O)O)cc1CN1Cc2nc(O)ccc2O[C@@H](C(F)(F)F)C1 [Example 21, (S)-3-(1,4-dimethyl-1H-benzo[d][1,2,3]triazol-5-yl)-3-(3-(((R)-7-hydroxy-2-(trifluoromethyl)-2,3-dihydropyrido[2,3-f][1,4]oxazepin-4(5H)-yl)methyl)-4-methylphenyl)-2,2-dimethylpropanoic acid]",10 to 100
12,"Cc1ccc([C@@H](c2ccc3c(nnn3C)c2C)C(C)(C)C(=O)O)cc1CN1Cc2nc(O)ccc2O[C@@H](C)C1 [Example 23, (S)-3-(1,4-dimethyl-1H-benzo[d][1,2,3]triazol-5-yl)-3-(3-(((S)-7-hydroxy-2-methyl-2,3-dihydropyrido[2,3-f][1,4]oxazepin-4(5H)-yl)methyl)-4-methylphenyl)-2,2-dimethylpropanoic acid]",10 to 100
13,"Cc1ccc([C@H](CC(=O)O)c2ccc3c(nnn3C)c2C)cc1CN1Cc2nc(O)ccc2O[C@H](C(F)(F)F)C1 [Example 25, (S)-3-(1,4-dimethyl-1H-benzo[d][1,2,3]triazol-5-yl)-3-(3-(((S)-7-hydroxy-2-(trifluoromethyl)-2,3-dihydropyrido[2,3-f][1,4]oxazepin-4(5H)-yl)methyl)-4-methylphenyl)propanoic acid]",10 to 100
14,"CC[C@H]1CN(Cc2cc([C@@H](CC(=O)O)c3ccc4c(nnn4C)c3C)ccc2C)Cc2nc(O)ccc2O1 [Example 7, (R)-3-(1,4-dimethyl-1H-benzo[d][1,2,3]triazol-5-yl)-3-(3-(((S)-2-ethyl-7-hydroxy-2,3-dihydropyrido[2,3-f][1,4]oxazepin-4(5H)-yl)methyl)-4-methylphenyl)propanoic acid]",100 to 1000
15,"Cc1ccc([C@@H](c2ccc3c(nnn3C)c2C)C(C)(C)C(=O)O)cc1CN1Cc2nc(O)ccc2O[C@H](C)C1 [Example 14, (S)-3-(1,4-dimethyl-1H-benzo[d][1,2,3]triazol-5-yl)-3-(3-(((R)-7-hydroxy-2-methyl-2,3-dihydropyrido[2,3-f][1,4]oxazepin-4(5H)-yl)methyl)-4-methylphenyl)-2,2-dimethylpropanoic acid]",1 to 10
16,"Cc1ccc([C@@H](c2ccc3c(nnn3C)c2C)C(C)(C)C(=O)O)cc1CN1Cc2nc(O)ccc2O[C@H](C(F)(F)F)C1 [Example 19, (S)-3-(1,4-dimethyl-1H-benzo[d][1,2,3]triazol-5-yl)-3-(3-(((S)-7-hydroxy-2-(trifluoromethyl)-2,3-dihydropyrido[2,3-f][1,4]oxazepin-4(5H)-yl)methyl)-4-methylphenyl)-2,2-dimethylpropanoic acid]",< 1
17,"CC[C@@H]1CN(Cc2cc([C@@H](c3ccc4c(nnn4C)c3C)C(C)(C)C(=O)O)ccc2C)Cc2nc(O)ccc2O1 [Example 13, (S)-3-(1,4-dimethyl-1H-benzo[d][1,2,3]triazol-5-yl)-3-(3-(((R)-2-ethyl-7-hydroxy-2,3-dihydropyrido[2,3-f][1,4]oxazepin-4(5H)-yl)methyl)-4-methylphenyl)-2,2-dimethyl propanoic acid]",< 1
